Data as given in US4511504A, “Carboxyalkyl peptide derivatives” (G.D. Searle & Co., priority 1983, dated 1985).

Target: T1, Human Rheumatoid Synovial Collagenase (Homo sapiens, UniProt P03956)
T1 construct: Human Rheumatoid Synovial Collagenase; from tissue; host or cells: human rheumatoid synovium (from the name only; the preparation is not described)
T1 sequence (P03956 100-469): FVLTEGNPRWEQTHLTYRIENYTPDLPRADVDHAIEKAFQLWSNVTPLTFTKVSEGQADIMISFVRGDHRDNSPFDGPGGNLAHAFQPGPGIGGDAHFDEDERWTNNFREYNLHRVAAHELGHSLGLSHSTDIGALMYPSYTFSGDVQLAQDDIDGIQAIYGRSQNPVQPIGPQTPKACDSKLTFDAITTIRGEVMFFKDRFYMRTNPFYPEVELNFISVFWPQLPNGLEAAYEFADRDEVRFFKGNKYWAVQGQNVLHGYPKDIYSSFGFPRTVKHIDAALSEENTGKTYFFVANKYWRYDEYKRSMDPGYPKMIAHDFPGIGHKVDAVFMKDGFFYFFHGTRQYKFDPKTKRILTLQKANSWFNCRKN
Assay: Collagenase inhibition, procedure of Cawston and Barrett (acetyl 14C collagen hydrolysis)
Type: biochemical
Conditions: inhibitor concentration effecting 50% inhibition; 37° C., 16 hours, native acetyl 14C collagen, Tris HCl-CaCl2 pH 7.6
Experimental: This was determined following the procedure of Cawston and Barrett, Anal. Biochem., 99, 340-345 (1979) whereby the 1 mM of the inhibitor being tested or dilutions thereof are incubated at 37° C. for 16 hours with native collagen and collagenase (buffered with Tris HCl--CaCl2; pH 7.6). The collagen is acetyl ^14 C collagen. The samples are centrifuged to sediment undigested collagen and an aliquot of the radiactive supernatant removed for assay on a scintillation counter as a measure of hydrolysis. The collagenase activity in the presence of 1 mM inhibitor, or a dilution thereof is compared to activity in a control devoid of inhibitor and the results reported as that inhibitor concentration effecting 50% inhibition of the collagenase.

IC50: 25 µM
SMILES: CCCCNC(=O)[C@H](C)NC(=O)[C@H](CC(C)(C)C)N[C@H](C)C(=O)O [Example 23, N-[2-(S)-N-(1-(R)-Carboxyethyl)amino-4,4-dimethylpentanoyl]-L-alanine N-Butylamide]
